# Measurements reported in patent publication US20210308089A1, “METHODS OF TREATING AND/OR PREVENTING VIRAL INFECTIONS AND/OR DISEASES CAUSED BY VIRUSES IN A SUBJECT IN NEED THEREOF” (priority 2020, published 2021).
# Where two headings read alike, the source gives them in different places.
# System: patients of the REDUCE-IT and earlier EPA placebo-controlled trials
# Format: in vivo, human
# Conditions: for Placebo-Adjusted % Change / ARR / NNT / Risk Ratio (95% CI): R-I
# [1] = Hematocrit shift: normal to high (Day 120)
# [2] = Hematocrit shift: normal to high (Day 360)
# [3] = Hematocrit shift: normal to high (Day 720)
# [4] = Hematocrit shift: normal to high (Day 1080)
# [5] = Hematocrit shift: normal to high (Day 1440)
# [6] = Hematocrit shift: normal to high (Day 1800)
# [7] = Hematocrit shift: normal to low (Day 120)
# [8] = Hematocrit shift: normal to low (Day 360)
# [9] = Hematocrit shift: normal to low (Day 720)
# [10] = Hematocrit shift: normal to low (Day 1080)
# [11] = Hematocrit shift: normal to low (Day 1440)
# [12] = Hematocrit shift: normal to low (Day 1800)
# [13] = Hemoglobin shift: normal to high (Day 120)
# [14] = Hemoglobin shift: normal to high (Day 360)
# [15] = Hemoglobin shift: normal to high (Day 720)
# [16] = Hemoglobin shift: normal to high (Day 1080)
# [17] = Hemoglobin shift: normal to high (Day 1440)
# [18] = Hemoglobin shift: normal to high (Day 1800)
# [19] = Hemoglobin shift: normal to low (Day 120)
# [20] = Hemoglobin shift: normal to low (Day 360)
# [21] = Hemoglobin shift: normal to low (Day 720)
# [22] = Hemoglobin shift: normal to low (Day 1080)
# [23] = Hemoglobin shift: normal to low (Day 1440)
# [24] = Hemoglobin shift: normal to low (Day 1800)
structure (smiles),measurement,setting,value
"CC/C=C\C/C=C\C/C=C\C/C=C\C/C=C\CCCC(=O)OCC [icosapent ethyl, eicosapentaenoic acid ethyl ester]",Placebo-Adjusted % Change,Hematocrit (Day 360),+.78%
same,Placebo-Adjusted % Change,Hematocrit (Day 720),+1.28%
same,Placebo-Adjusted % Change,Hematocrit (Day 1080),+1.59%
same,Placebo-Adjusted % Change,Hematocrit (Day 1440),+1.86%
same,ARR,[1],0.4%
same,NNT,[1],−234
same,Risk Ratio (95% CI),[1],1.507 (0.952 to 2.386) −2
same,ARR,[2],0.3%
same,NNT,[2],−364
same,Risk Ratio (95% CI),[2],1.273 (0.811 to 1.999) −2
same,ARR,[3],0.2%
same,NNT,[3],−566
same,Risk Ratio (95% CI),[3],1.181 (0.724 to 1.927) −1
same,ARR,[4],0.4%
same,NNT,[4],−282
same,Risk Ratio (95% CI),[4],1.433 (0.826 to 2.487) −2
same,ARR,[5],0.7%
same,NNT,[5],−138
same,Risk Ratio (95% CI),[5],2.208 (1.155 to 4.221) −3
same,ARR,[6],0.3%
same,NNT,[6],−354
same,Risk Ratio (95% CI),[6],1.420 (0.582 to 3.462) −2
same,ARR,[7],−0.4%
same,NNT,[7],228
same,Risk Ratio (95% CI),[7],0.828 (0.612 to 1.120) 1
same,ARR,[8],−0.6%
same,NNT,[8],158
same,Risk Ratio (95% CI),[8],0.784 (0.583 to 1.054) 2
same,ARR,[9],−1.1%
same,NNT,[9],90
same,Risk Ratio (95% CI),[9],0.747 (0.579 to 0.964) 2
same,ARR,[10],−2.2%
same,NNT,[10],45
same,Risk Ratio (95% CI),[10],0.607 (0.469 to 0.785) 2
same,ARR,[11],−2.1%
same,NNT,[11],47
same,Risk Ratio (95% CI),[11],0.650 (0.500 to 0.845) 2
same,ARR,[12],−0.9%
same,NNT,[12],111
same,Risk Ratio (95% CI),[12],0.859 (0.627 to 1.179) 1
same,Placebo-Adjusted % Change,Hemoglobin (Day 120),+.53%
same,Placebo-Adjusted % Change,Hemoglobin (Day 360),+1%
same,Placebo-Adjusted % Change,Hemoglobin (Day 720),+1.51%
same,Placebo-Adjusted % Change,Hemoglobin (Day 1080),+2.09%
same,Placebo-Adjusted % Change,Hemoglobin (Day 1440),+2.36%
same,ARR,[13],0.3%
same,NNT,[13],−313
same,Risk Ratio (95% CI),[13],1.668 (0.915 to 3.042) −2
same,ARR,[14],−0.1%
same,NNT,[14],961
same,Risk Ratio (95% CI),[14],0.908 (0.571 to 1.442) 1
same,ARR,[15],0.2%
same,NNT,[15],−491
same,Risk Ratio (95% CI),[15],1.144 (0.760 to 1.721) −1
same,ARR,[16],1.0%
same,NNT,[16],−103
same,Risk Ratio (95% CI),[16],2.241 (1.330 to 3.778) −3
same,ARR,[17],0.7%
same,NNT,[17],−145
same,Risk Ratio (95% CI),[17],1.829 (1.036 to 3.229) −3
same,ARR,[18],0.4%
same,NNT,[18],−240
same,Risk Ratio (95% CI),[18],1.383 (0.686 to 2.788) −2
same,ARR,[19],0.0%
same,NNT,[19],−2370
same,Risk Ratio (95% CI),[19],1.013 (0.787 to 1.303) −1
same,ARR,[20],−0.7%
same,NNT,[20],134
same,Risk Ratio (95% CI),[20],0.828 (0.652 to 1.051) 1
same,ARR,[21],−1.1%
same,NNT,[21],93
same,Risk Ratio (95% CI),[21],0.815 (0.657 to 1.011) 1
same,ARR,[22],−2.3%
same,NNT,[22],44
same,Risk Ratio (95% CI),[22],0.703 (0.570 to 0.868) 2
same,ARR,[23],−2.7%
same,NNT,[23],37
same,Risk Ratio (95% CI),[23],0.685 (0.553 to 0.849) 2
same,ARR,[24],−1.5%
same,NNT,[24],67
same,Risk Ratio (95% CI),[24],0.827 (0.630 to 1.085) 1
same,ARR,Lymphocytes: PCS High >45%,2.7%
same,NNT,Lymphocytes: PCS High >45%,−38
same,Risk Ratio (95% CI),Lymphocytes: PCS High >45%,1.543 (1.296 to 1.838) −2
same,ARR,Lymphocytes: PCS Low <30%,−6.3%
same,NNT,Lymphocytes: PCS Low <30%,16
same,Risk Ratio (95% CI),Lymphocytes: PCS Low <30%,0.924 (0.904 to 0.945) 1
same,Placebo-Adjusted % Change,Neutrophils (Day 120),+1.11%
same,Placebo-Adjusted % Change,Neutrophils (Day 360),−3%
same,Placebo-Adjusted % Change,Neutrophils (Day 720),−4.7%
same,Placebo-Adjusted % Change,Neutrophils (Day 1080),−4.52%
same,Placebo-Adjusted % Change,Neutrophils (Day 1440),−3.06%
same,Placebo-Adjusted % Change,Neutrophils/Leukocytes (Ratio) (Day 120),−2.06%
same,Placebo-Adjusted % Change,Neutrophils/Leukocytes (Ratio) (Day 360),−3.87%
same,Placebo-Adjusted % Change,Neutrophils/Leukocytes (Ratio) (Day 720),−4.61%
same,Placebo-Adjusted % Change,Neutrophils/Leukocytes (Ratio) (Day 1080),−4.21%
same,Placebo-Adjusted % Change,Neutrophils/Leukocytes (Ratio) (Day 1440),−4.1%
same,AR: ALP >2x ULN (AE table),"human, in vivo",0.6%
same,AR: ALP > ULN (AE table),"human, in vivo",9.8%
same,AR: Blood uric acid increased (AE table),"human, in vivo",1.0%
same,AR: Gout (AE table),"human, in vivo",3.6%
same,AR: Hepatomegaly (AE table),"human, in vivo",0.4%
same,AR: Hyperuricemia (AE table),"human, in vivo",0.6%
same,AR: Spleen disorders (AE table),"human, in vivo",0.3%
same,AR: Splenomegaly (AE table),"human, in vivo",0.2%
same,ARR: ALP >2x ULN (AE table),"human, in vivo",−0.3%
same,ARR: ALP > ULN (AE table),"human, in vivo",−4.5%
same,ARR: Blood uric acid increased (AE table),"human, in vivo",0.1%
same,ARR: Gout (AE table),"human, in vivo",1.1%
same,ARR: Hepatomegaly (AE table),"human, in vivo",−0.4%
same,ARR: Hyperuricemia (AE table),"human, in vivo",0.3%
same,ARR: Spleen disorders (AE table),"human, in vivo",−0.3%
same,ARR: Splenomegaly (AE table),"human, in vivo",−0.1%
same,Lab Reported Events: % of subjects,"human, in vivo",(79.9) %
same,Lab Reported Events: number of subjects,"human, in vivo",3269
same,NNT: ALP >2x ULN (AE table),"human, in vivo",341
same,NNT: ALP > ULN (AE table),"human, in vivo",22
same,NNT: Blood uric acid increased (AE table),"human, in vivo",−680
same,NNT: Gout (AE table),"human, in vivo",−93
same,NNT: Hepatomegaly (AE table),"human, in vivo",256
same,NNT: Hyperuricemia (AE table),"human, in vivo",−292
same,NNT: Spleen disorders (AE table),"human, in vivo",372
same,NNT: Splenomegaly (AE table),"human, in vivo",682
same,Platelet Count: PCS High >500 × 10^3/uL,"human, in vivo",16 (0.4%) n(%)
same,Platelet Count: PCS High >500 × 10^3/uL: % of subjects,"human, in vivo",(0.4) %
same,Platelet Count: PCS High >500 × 10^3/uL: number of subjects,"human, in vivo",16
same,Platelet Count: PCS Low <100 × 10^3/uL,"human, in vivo",19 (0.5%) n(%)
same,Platelet Count: PCS Low <100 × 10^3/uL: % of subjects,"human, in vivo",(0.5) %
same,Platelet Count: PCS Low <100 × 10^3/uL: number of subjects,"human, in vivo",19
same,Risk Ratio (95% CI): ALP >2x ULN (AE table),"human, in vivo",0.600 (0.335 to 1.075) 2
same,Risk Ratio (95% CI): ALP > ULN (AE table),"human, in vivo",0.624 (0.545 to 0.714) 2
same,Risk Ratio (95% CI): Blood uric acid increased (AE table),"human, in vivo",1.154 (0.753 to 1.768) −1
same,Risk Ratio (95% CI): Gout (AE table),"human, in vivo",1.347 (1.075 to 1.687) −2
same,Risk Ratio (95% CI): Hepatomegaly (AE table),"human, in vivo",0.304 (0.131 to 0.709) 4
same,Risk Ratio (95% CI): Hyperuricemia (AE table),"human, in vivo",1.737 (0.990 to 3.050) −3
same,Risk Ratio (95% CI): Spleen disorders (AE table),"human, in vivo",0.353 (0.139 to 0.894) 4
same,Risk Ratio (95% CI): Splenomegaly (AE table),"human, in vivo",0.400 (0.126 to 1.275) 3
same,WBC Differential (Lymphocytes): PCS High >45%: % of subjects,"human, in vivo",(7.4) %
same,WBC Differential (Lymphocytes): PCS High >45%: number of subjects,"human, in vivo",301
same,WBC Differential (Lymphocytes): PCS Low <30%: % of subjects,"human, in vivo",(75.0) %
same,WBC Differential (Lymphocytes): PCS Low <30%: number of subjects,"human, in vivo",3067
same,WBC Differential (Monocytes): PCS High >6%,"human, in vivo",3101 (78.0%) n(%)
